Test results from ChEMBL document CHEMBL1125591, “Synthesis and antidopaminergic activity of some 3-(aminomethyl)tetralones as analogues of butyrophenone” (J Med Chem, 1991).

Experiments:
Rattus norvegicus [1] = species on record: Rattus norvegicus; assay: Compound was evaluated for the pA2 values against Norepinephrine (NE)-induced contraction of isolated rat vas deferens; assay type: functional; details: read-out: pA2 (converted)
D(1A) dopamine receptor = D(1A) dopamine receptor (Rattus norvegicus, UniProt P18901); assay: Compound was evaluated for its affinity (pKi) to inhibit [3H]SCH-23390 binding to the dopamine receptor D1
Sequence of D(1A) dopamine receptor (P18901 whole entry): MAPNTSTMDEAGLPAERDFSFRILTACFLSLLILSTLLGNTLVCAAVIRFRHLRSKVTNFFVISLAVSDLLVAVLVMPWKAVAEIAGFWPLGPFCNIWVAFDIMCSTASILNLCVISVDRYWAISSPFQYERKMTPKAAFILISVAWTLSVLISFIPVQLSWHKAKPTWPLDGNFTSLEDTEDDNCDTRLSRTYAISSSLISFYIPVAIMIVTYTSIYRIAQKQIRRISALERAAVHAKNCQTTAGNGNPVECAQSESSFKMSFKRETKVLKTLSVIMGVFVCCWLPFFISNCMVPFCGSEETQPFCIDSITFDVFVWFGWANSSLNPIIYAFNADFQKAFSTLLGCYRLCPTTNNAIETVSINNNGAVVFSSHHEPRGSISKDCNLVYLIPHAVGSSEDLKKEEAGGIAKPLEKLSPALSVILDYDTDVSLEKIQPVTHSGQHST

Rattus norvegicus [2] = species on record: Rattus norvegicus; assay: Compound was evaluated for the pA2 values against Dopamine (DA)-induced contraction of isolated rat vas deferens.; assay type: functional, organism-based; details: read-out: pA2 (converted)
Mus musculus = species on record: Mus musculus; assay: Compound was evaluated for the effective dose that causes lethality in aggregated mice (group toxicity antagonism); assay type: organism-based; details: in vivo
D(2) dopamine receptor = D(2) dopamine receptor (Rattus norvegicus, UniProt P61169); assay: Compound was evaluated for its affinity (pKi) to inhibit [3H]spiperone binding to the dopamine receptor D2
Sequence of D(2) dopamine receptor (P61169 whole entry): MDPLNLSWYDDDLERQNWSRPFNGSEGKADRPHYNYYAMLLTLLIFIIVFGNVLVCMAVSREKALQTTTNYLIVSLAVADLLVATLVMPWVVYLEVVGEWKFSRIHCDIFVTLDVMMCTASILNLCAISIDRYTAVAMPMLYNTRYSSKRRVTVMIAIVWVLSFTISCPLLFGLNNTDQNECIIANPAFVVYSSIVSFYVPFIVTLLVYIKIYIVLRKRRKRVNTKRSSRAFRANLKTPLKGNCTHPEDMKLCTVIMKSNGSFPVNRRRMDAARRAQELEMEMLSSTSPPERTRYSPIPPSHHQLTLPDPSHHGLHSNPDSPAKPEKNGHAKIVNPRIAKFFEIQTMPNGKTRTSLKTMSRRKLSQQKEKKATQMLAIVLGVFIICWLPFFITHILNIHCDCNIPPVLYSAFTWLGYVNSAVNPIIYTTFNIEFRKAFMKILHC

| Compound | Kb (Rattus norvegicus [1]) [nM] | Ki (D(1A) dopamine receptor) [nM] | Kb (Rattus norvegicus [2]) [nM] | ED50 (Mus musculus) [mg/kg] | Ki (D(2) dopamine receptor) [nM] |
| --- | --- | --- | --- | --- | --- |
| O=C1CC(CN2CCC(C(=O)c3ccc(F)cc3)CC2)Cc2ccccc21 (centres undefined) | 83.2 | 324 | 35.5 | 0.055 | – |
| COc1ccccc1N1CCN(CC2CC(=O)c3ccccc3C2)CC1 (centres undefined) | 174 | 1350 | 66.1 | 0.349 | – |
| O=C(CCCN1CCN(CC2CC(=O)c3ccccc3C2)CC1)c1ccc(F)cc1 (centres undefined) | 178 | 380 | 53.7 | – | – |
| O=C(CCCN1CCN(CC2CC(=O)c3ccc(F)cc3C2)CC1)c1ccc(F)cc1 (centres undefined) | – | 912 | – | 0.053 | 77.6 |
| O=C1CC(CN2CCC(O)(c3ccccc3)CC2)Cc2ccccc21 (centres undefined) | – | 741 | – | – | 74.1 |
| O=C(CCCN1CCC(O)(c2ccc(Cl)cc2)CC1)c1ccc(F)cc1 [HALOPERIDOL] | 102 | – | 39.8 | 0.02 | – |
